# Values of other authors as cited in patent US8071763B2, “Methods for treatment of nocturia” (Daiichi Sankyo Company, Limited, priority 2002, dated 2011).
# Read-outs that look alike come from different tables or passages of the source.
# Tests used:
# nocturia [1] = details: 100 mg suppository, open trial, 15 patients; cited from earlier work
# nocturia [2] = details: one patient; suppository administered as antipyretics; cited from earlier work
compound,measurement,setting,value
COc1ccc2c(c1)c(CC(=O)O)c(C)n2C(=O)c1ccc(Cl)cc1 [indomethacin],Effect on nocturia,nocturia [1],improved nocturia in all 15 patients
same,Effect on nocturia,nocturia [2],nocturia was improved
